According to PubChem BioAssay (NCI):
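A five-concentration, 48-hour dose response in 96-well plates underlies each endpoint, interpolated linearly between surrounding concentrations. TGI: total growth inhibition.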

Experiments:
Assay in all cases: DTP human tumour cell line panel, 48 h
[1] = test system: 786-0 renal
[2] = test system: A498 renal
[3] = test system: A549 NSCLC
[4] = test system: ACHN renal
[5] = test system: BT-549 breast
[6] = test system: CAKI-1 renal
[7] = test system: CCRF-CEM leukemia
[8] = test system: COLO 205 colon
[9] = test system: DU-145 prostate
[10] = test system: EKVX NSCLC
[11] = test system: HCC-2998 colon
[12] = test system: HCT-116 colon
[13] = test system: HCT-15 colon
[14] = test system: HL-60(TB) leukemia
[15] = test system: HOP-62 NSCLC
[16] = test system: HOP-92 NSCLC
[17] = test system: HS 578T breast
[18] = test system: HT29 colon
[19] = test system: IGROV1 ovarian
[20] = test system: K-562 leukemia
[21] = test system: KM12 colon
[22] = test system: LOX IMVI melanoma
[23] = test system: M14 melanoma
[24] = test system: MALME-3M melanoma
[25] = test system: MCF7 breast
[26] = test system: MDA-MB-231 breast
[27] = test system: MDA-MB-435
[28] = test system: MDA-N
[29] = test system: MOLT-4 leukemia
[30] = test system: NCI-H226 lung
[31] = test system: NCI-H23 lung
[32] = test system: NCI-H460 lung
[33] = test system: NCI-H522 lung
[34] = test system: NCI/ADR-RES ovarian
[35] = test system: OVCAR-3 ovarian
[36] = test system: OVCAR-4 ovarian
[37] = test system: OVCAR-5 ovarian
[38] = test system: OVCAR-8 ovarian
[39] = test system: PC-3 prostate
[40] = test system: RPMI-8226 leukemia
[41] = test system: RXF 393 renal
[42] = test system: SF-268 CNS
[43] = test system: SF-295 CNS
[44] = test system: SF-539 CNS
[45] = test system: SK-MEL-2 melanoma
[46] = test system: SK-MEL-28 melanoma
[47] = test system: SK-MEL-5 melanoma
[48] = test system: SK-OV-3 ovarian
[49] = test system: SN12C renal
[50] = test system: SNB-19 CNS
[51] = test system: SNB-75 CNS
[52] = test system: SR leukemia
[53] = test system: SW-620 colon
[54] = test system: T-47D breast
[55] = test system: TK-10 renal
[56] = test system: U251 CNS
[57] = test system: UACC-257 melanoma
[58] = test system: UACC-62 melanoma
[59] = test system: UO-31 renal

With `N#Cc1c(=O)c2cc([N+](=O)[O-])ccc2n2c1[nH]c1ccccc12` the TGI [1] was greater than 100 µM, the TGI [2] was greater than 93.1 µM and the TGI [3] was greater than 100 µM. The TGI [4] was greater than 93.5 µM, the TGI [5] was greater than 69.5 µM and the TGI [6] was greater than 92 µM. For the same molecule, the TGI [7] was greater than 100 µM, the TGI [8] was greater than 44.4 µM and the TGI [9] was greater than 100 µM. For the same molecule, the TGI [10] was greater than 100 µM, the TGI [11] was greater than 100 µM and the TGI [12] was greater than 40.1 µM. The TGI [13] was greater than 61.6 µM, the TGI [14] was greater than 100 µM and the TGI [15] was 97.7 µM. For the same molecule, the TGI [16] was greater than 39 µM, the TGI [17] was greater than 74.9 µM and the TGI [18] was greater than 87.9 µM. For the same molecule, the TGI [19] was greater than 83.7 µM, the TGI [20] was greater than 23.4 µM and the TGI [21] was greater than 57.2 µM. For the same molecule, the TGI [22] was greater than 50.4 µM, the TGI [23] was greater than 64.6 µM and the TGI [24] was 35.4 µM. It also gave a TGI [25] greater than 86.5 µM, a TGI [26] greater than 57.4 µM and a TGI [27] greater than 79.9 µM. The TGI [28] was greater than 77.4 µM, the TGI [29] was greater than 76.1 µM and the TGI [30] was greater than 51 µM. The TGI [31] was greater than 38.4 µM, the TGI [32] was greater than 89.2 µM and the TGI [33] was 5.75 µM. The TGI [34] was greater than 56.4 µM, the TGI [35] was greater than 55.7 µM and the TGI [36] was greater than 100 µM. For the same molecule, the TGI [37] was greater than 100 µM, the TGI [38] was greater than 79.5 µM and the TGI [39] was greater than 100 µM. It also gave a TGI [40] greater than 100 µM, a TGI [41] greater than 100 µM and a TGI [42] greater than 100 µM. The TGI [43] was greater than 52.2 µM, the TGI [44] was greater than 100 µM and the TGI [45] was greater than 69.1 µM. It also gave a TGI [46] greater than 64.8 µM, a TGI [47] of 28.3 µM and a TGI [48] greater than 100 µM. For the same molecule, the TGI [49] was greater than 100 µM, the TGI [50] was greater than 72.9 µM and the TGI [51] was greater than 100 µM. The TGI [52] was 96.6 µM, the TGI [53] was greater than 100 µM and the TGI [54] was greater than 72.7 µM. It also gave a TGI [55] greater than 100 µM, a TGI [56] greater than 92.6 µM and a TGI [57] greater than 72 µM. The TGI [58] was greater than 54.1 µM and the TGI [59] was greater than 57.4 µM.

`CCCn1cnc2c(NN=O)ncnc21` gave a TGI [1] greater than 100 µM, a TGI [2] greater than 100 µM and a TGI [4] greater than 100 µM. For the same molecule, the TGI [5] was greater than 100 µM, the TGI [6] was greater than 100 µM and the TGI [8] was greater than 100 µM. The TGI [9] was greater than 100 µM, the TGI [10] was greater than 100 µM and the TGI [11] was greater than 100 µM. For the same molecule, the TGI [12] was greater than 100 µM, the TGI [13] was greater than 100 µM and the TGI [14] was greater than 100 µM. It also gave a TGI [15] greater than 100 µM, a TGI [16] greater than 100 µM and a TGI [17] greater than 100 µM. It also gave a TGI [18] greater than 100 µM, a TGI [19] greater than 100 µM and a TGI [20] greater than 100 µM. For the same molecule, the TGI [21] was greater than 100 µM, the TGI [23] was greater than 100 µM and the TGI [24] was greater than 100 µM. It also gave a TGI [25] greater than 100 µM, a TGI [26] greater than 100 µM and a TGI [27] greater than 100 µM. It also gave a TGI [28] greater than 100 µM, a TGI [29] greater than 100 µM and a TGI [30] greater than 100 µM. It also gave a TGI [31] greater than 100 µM, a TGI [32] greater than 100 µM and a TGI [33] greater than 100 µM. It also gave a TGI [34] greater than 100 µM, a TGI [35] greater than 100 µM and a TGI [36] greater than 100 µM. It also gave a TGI [37] greater than 100 µM, a TGI [38] greater than 100 µM and a TGI [39] greater than 100 µM. For the same molecule, the TGI [40] was greater than 100 µM, the TGI [41] was greater than 100 µM and the TGI [42] was greater than 100 µM. The TGI [44] was greater than 100 µM, the TGI [46] was greater than 100 µM and the TGI [47] was greater than 100 µM. It also gave a TGI [50] greater than 100 µM, a TGI [51] greater than 100 µM and a TGI [52] greater than 100 µM. For the same molecule, the TGI [53] was greater than 100 µM, the TGI [54] was greater than 100 µM and the TGI [55] was greater than 100 µM. For the same molecule, the TGI [56] was greater than 100 µM, the TGI [58] was greater than 100 µM and the TGI [59] was greater than 100 µM.

`COC(=O)C1OC(O[C@H]2CC[C@]3(C)[C@H]4CC=C5[C@@H]6CC(C)(C)CC[C@]6(C(=O)OC)[C@H](O)C[C@@]5(C)[C@]4(C)CC[C@H]3C2(C)C)C(O)C(O)C1O` (stereo not given in full) gave a TGI [1] of 20.9 µM, a TGI [2] of 26.1 µM and a TGI [3] of 17.4 µM. For the same molecule, the TGI [4] was 23.8 µM, the TGI [5] was 30.4 µM and the TGI [6] was 27.2 µM. The TGI [7] was 21.4 µM, the TGI [8] was 17.5 µM and the TGI [9] was 21.6 µM. For the same molecule, the TGI [10] was 21.4 µM, the TGI [11] was 8.64 µM and the TGI [12] was 17 µM. For the same molecule, the TGI [13] was 22.2 µM, the TGI [14] was 13.7 µM and the TGI [15] was 31.1 µM. It also gave a TGI [16] of 30.5 µM, a TGI [17] of 34.1 µM and a TGI [18] of 13.5 µM. For the same molecule, the TGI [19] was 24.8 µM, the TGI [20] was 15 µM and the TGI [21] was 4.21 µM. For the same molecule, the TGI [22] was 17.1 µM, the TGI [23] was 18.3 µM and the TGI [24] was 25.4 µM. For the same molecule, the TGI [25] was 23.5 µM, the TGI [26] was 21.8 µM and the TGI [27] was 27.7 µM. The TGI [28] was 24.9 µM, the TGI [29] was 25.2 µM and the TGI [30] was 31.7 µM. For the same molecule, the TGI [31] was 18.9 µM, the TGI [32] was 22.7 µM and the TGI [33] was 3.06 µM. The TGI [34] was 26.3 µM, the TGI [35] was 22.1 µM and the TGI [36] was 19.7 µM. It also gave a TGI [37] of 26 µM, a TGI [38] of 27.3 µM and a TGI [39] of 19.8 µM. It also gave a TGI [40] of 27.4 µM, a TGI [41] of 18.1 µM and a TGI [42] of 29.5 µM. The TGI [43] was 23.1 µM, the TGI [45] was 28.7 µM and the TGI [46] was 23.8 µM. The TGI [47] was 26.2 µM, the TGI [48] was 28.2 µM and the TGI [49] was 25.9 µM. It also gave a TGI [50] of 26.9 µM, a TGI [51] of 28.1 µM and a TGI [52] of 15.9 µM. For the same molecule, the TGI [53] was 24.9 µM, the TGI [54] was 28.6 µM and the TGI [56] was 23.9 µM. It also gave a TGI [57] of 29.1 µM, a TGI [58] of 25.1 µM and a TGI [59] of 26.9 µM.

`C(CCc1nnc2c(n1)CCCC2)Cc1nnc2c(n1)CCCC2` was tested, and the TGI [1] was greater than 100 µM, the TGI [2] was greater than 100 µM and the TGI [3] was greater than 100 µM. For the same molecule, the TGI [4] was greater than 100 µM, the TGI [5] was greater than 100 µM and the TGI [6] was greater than 100 µM. For the same molecule, the TGI [7] was greater than 100 µM, the TGI [8] was greater than 100 µM and the TGI [9] was greater than 100 µM. It also gave a TGI [10] greater than 100 µM, a TGI [11] greater than 100 µM and a TGI [12] greater than 100 µM. The TGI [13] was greater than 100 µM, the TGI [14] was greater than 100 µM and the TGI [15] was greater than 100 µM. It also gave a TGI [16] greater than 100 µM, a TGI [17] greater than 100 µM and a TGI [18] greater than 100 µM. It also gave a TGI [19] greater than 100 µM, a TGI [20] greater than 100 µM and a TGI [21] greater than 100 µM. The TGI [22] was greater than 100 µM, the TGI [23] was greater than 100 µM and the TGI [24] was greater than 100 µM. For the same molecule, the TGI [25] was greater than 100 µM, the TGI [26] was greater than 100 µM and the TGI [27] was greater than 100 µM. It also gave a TGI [28] greater than 100 µM, a TGI [29] greater than 100 µM and a TGI [30] greater than 100 µM. The TGI [31] was greater than 100 µM, the TGI [32] was greater than 100 µM and the TGI [33] was greater than 100 µM. The TGI [34] was greater than 100 µM, the TGI [35] was greater than 100 µM and the TGI [36] was greater than 100 µM. For the same molecule, the TGI [37] was greater than 100 µM, the TGI [38] was greater than 100 µM and the TGI [39] was greater than 100 µM. The TGI [40] was greater than 100 µM, the TGI [41] was greater than 100 µM and the TGI [42] was greater than 100 µM. For the same molecule, the TGI [43] was greater than 100 µM, the TGI [44] was greater than 100 µM and the TGI [45] was greater than 100 µM. It also gave a TGI [46] greater than 100 µM, a TGI [47] greater than 100 µM and a TGI [48] greater than 100 µM. For the same molecule, the TGI [49] was greater than 100 µM, the TGI [50] was greater than 100 µM and the TGI [51] was greater than 100 µM. The TGI [52] was greater than 100 µM, the TGI [53] was greater than 100 µM and the TGI [54] was greater than 100 µM. For the same molecule, the TGI [55] was greater than 100 µM, the TGI [56] was greater than 100 µM and the TGI [58] was greater than 100 µM. It also gave a TGI [59] greater than 100 µM.
